# Test system: HUVEC/MSC spheroids viability
# Assay: Human HUVEC/MSC cell line growth inhibition [KRAS2];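 on viability, T/C: percent of DMSO vehicle control luminescence so 100% = untreated viability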
# Details: for IC50: curve of first compound; for viability, T/C: stronger effect = lower value
# Procedure, shortened: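 HUVEC + hMSC stromal spheroids only, no malignant cells; 37 °C, 5% CO2. Drugs singly and in pairs, half-log series down from clinical Cmax (max 10 microM if Cmax undetermined).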
# [1] = second compound 0.0316 µM, first compound 0.0316 µM
# [2] = second compound 0.0316 µM, first compound 0.1 µM
# [3] = second compound 0.0316 µM, first compound 0.316 µM
# [4] = second compound 0.0316 µM, first compound 1 µM
# [5] = second compound 0.0316 µM, first compound 3.16 µM
# [6] = second compound 0.0316 µM, first compound 10 µM
# [7] = second compound 0.1 µM, first compound 0.0316 µM
# [8] = second compound 0.1 µM, first compound 0.1 µM
# [9] = second compound 0.1 µM, first compound 0.316 µM
# [10] = second compound 0.1 µM, first compound 1 µM
# [11] = second compound 0.1 µM, first compound 3.16 µM
# [12] = second compound 0.1 µM, first compound 10 µM
# [13] = second compound 0.316 µM, first compound 0.0316 µM
# [14] = second compound 0.316 µM, first compound 0.1 µM
# [15] = second compound 0.316 µM, first compound 0.316 µM
# [16] = second compound 0.316 µM, first compound 1 µM
# [17] = second compound 0.316 µM, first compound 3.16 µM
# [18] = second compound 0.316 µM, first compound 10 µM
# [19] = second compound 1 µM, first compound 0.0316 µM
# [20] = second compound 1 µM, first compound 0.1 µM
# [21] = second compound 1 µM, first compound 0.316 µM
# [22] = second compound 1 µM, first compound 1 µM
# [23] = second compound 1 µM, first compound 3.16 µM
# [24] = second compound 1 µM, first compound 10 µM
# [25] = second compound 3.16 µM, first compound 0.0316 µM
# [26] = second compound 3.16 µM, first compound 0.1 µM
# [27] = second compound 3.16 µM, first compound 0.316 µM
# [28] = second compound 3.16 µM, first compound 1 µM
# [29] = second compound 3.16 µM, first compound 3.16 µM
# [30] = second compound 3.16 µM, first compound 10 µM
# [31] = second compound 10 µM, first compound 0.0316 µM
# [32] = second compound 10 µM, first compound 0.1 µM
# [33] = second compound 10 µM, first compound 0.316 µM
# [34] = second compound 10 µM, first compound 1 µM
# [35] = second compound 10 µM, first compound 3.16 µM
# [36] = second compound 10 µM, first compound 10 µM
structure (smiles),measurement,setting,value
Cn1nccc1Nc1nccc(-c2cc3c(s2)C(C)(C)N(CCN2CCOCC2)C3=O)n1 + C=CC(=O)N1CCN(c2nc(=O)n(-c3c(C)ccnc3C(C)C)c3nc(-c4c(O)cccc4F)c(F)cc23)C(C)C1,IC50,second compound 0.0316 µM,2.98 µM
same,IC50,second compound 0.1 µM,2.65 µM
same,IC50,second compound 0.316 µM,2.7 µM
same,IC50,second compound 1 µM,3.09 µM
same,IC50,second compound 3.16 µM,2.66 µM
same,IC50,second compound 10 µM,2.56 µM
same,"viability, T/C",[1],86.7%
same,"viability, T/C",[2],102%
same,"viability, T/C",[3],112%
same,"viability, T/C",[4],93.3%
same,"viability, T/C",[5],47.7%
same,"viability, T/C",[6],5.76%
same,"viability, T/C",[7],105%
same,"viability, T/C",[8],108%
same,"viability, T/C",[9],105%
same,"viability, T/C",[10],93.4%
same,"viability, T/C",[11],42.1%
same,"viability, T/C",[12],9.02%
same,"viability, T/C",[13],99.2%
same,"viability, T/C",[14],114%
same,"viability, T/C",[15],98.6%
same,"viability, T/C",[16],99.6%
same,"viability, T/C",[17],42.2%
same,"viability, T/C",[18],5.77%
same,"viability, T/C",[19],99.8%
same,"viability, T/C",[20],118%
same,"viability, T/C",[21],129%
same,"viability, T/C",[22],90.2%
same,"viability, T/C",[23],51.1%
same,"viability, T/C",[24],4.48%
same,"viability, T/C",[25],115%
same,"viability, T/C",[26],129%
same,"viability, T/C",[27],112%
same,"viability, T/C",[28],84%
same,"viability, T/C",[29],45.3%
same,"viability, T/C",[30],4.12%
same,"viability, T/C",[31],150%
same,"viability, T/C",[32],128%
same,"viability, T/C",[33],135%
same,"viability, T/C",[34],106%
same,"viability, T/C",[35],37%
same,"viability, T/C",[36],3.03%
COc1cc2nccc(Oc3ccc(NC(=O)C4(C(=O)Nc5ccc(F)cc5)CC4)cc3)c2cc1OC + CC1OCC2(CCN(c3cnc(Sc4ccnc(N)c4Cl)c(N)n3)CC2)C1N,IC50,second compound 0.0316 µM,5.72 µM
same,IC50,second compound 0.1 µM,4.56 µM
same,IC50,second compound 0.316 µM,5.32 µM
same,IC50,second compound 1 µM,4.1 µM
same,IC50,second compound 3.16 µM,3.61 µM
same,IC50,second compound 10 µM,3.12 µM
same,"viability, T/C",[1],111%
same,"viability, T/C",[2],87.5%
same,"viability, T/C",[3],79.3%
same,"viability, T/C",[4],103%
same,"viability, T/C",[5],73.7%
same,"viability, T/C",[6],27.6%
same,"viability, T/C",[7],96.5%
same,"viability, T/C",[8],93%
same,"viability, T/C",[9],100%
same,"viability, T/C",[10],80.8%
same,"viability, T/C",[11],66.5%
same,"viability, T/C",[12],17.4%
same,"viability, T/C",[13],88.6%
same,"viability, T/C",[14],89.9%
same,"viability, T/C",[15],67.9%
same,"viability, T/C",[16],83%
same,"viability, T/C",[17],75%
same,"viability, T/C",[18],19.6%
same,"viability, T/C",[19],72.6%
same,"viability, T/C",[20],75.6%
same,"viability, T/C",[21],82.4%
same,"viability, T/C",[22],80%
same,"viability, T/C",[23],62.3%
same,"viability, T/C",[24],8.31%
same,"viability, T/C",[25],72.5%
same,"viability, T/C",[26],79%
same,"viability, T/C",[27],77.5%
same,"viability, T/C",[28],62.6%
same,"viability, T/C",[29],58.6%
same,"viability, T/C",[30],5.57%
same,"viability, T/C",[31],67.8%
same,"viability, T/C",[32],72%
same,"viability, T/C",[33],73.2%
same,"viability, T/C",[34],61.9%
same,"viability, T/C",[35],50.7%
same,"viability, T/C",[36],3.16%

# Source: PubChem BioAssay AID2060912 (Molecular Pharmacology Branch, DTP, NCI, 2025)
